Counter-ions that a name gives are not always drawn.
Biological target: T1, rat squalene epoxidase (Rattus norvegicus, UniProt P52020)
T1 construct: Livers were extracted and homogenized; from tissue; host or cells: liver of SD-strain female rats; microsomes solubilized with 2 % Triton X-100, 105000 x g supernatant
Assay: Squalene epoxidase inhibiting activity (3H-squalene to squalene-2,3-epoxide, solubilized liver microsome fraction)
Assay type: biochemical
Details: 8 µM 3H-squalene, 37 °C, 30 minutes, read-out: 50 % inhibitory concentration (IC50)
Description: The rat squalene epoxidase was prepared by the method described in J. Biol. Chem., vol.
SD-strain female rats were killed by exsanguination. Livers were extracted and homogenized with in the presence of 2 volumes of 0.1M Tris-HCl buffer (pH 7.5). The homogenate was centrifuged at 9750 Xg for 10 minutes. The supernatant fraction was further centrifuged at 105000 Xg for 1 hour. The sediment was washed with 0.1M Tris-HCl buffer (pH 7.5), and then centrifuged at 105000 Xg for 1 hour. The microsomes obtained were suspended in 0.1M Tris-HCl buffer (pH 7.5) so that the amount of proteins was 40 mg/ml, and under ice cooling, the suspension was stirred in the presence of 2 % Triton X-100 to solubilize the enzyme. After the solubilization, the solution was diluted to a Triton X-100 concentration of 0.5 % with 1 mM EDTA and 1 mM dithiothreitol, and centrifuged at 105000 Xg for 1 hour. The resulting supernatant fraction was used in the following test as a squalene epoxidase fraction.
The squalene epoxidase activity was assayed in accordance with the method described in J. Biol. Chem., vol.
Three microliters of a dimethyl sulfoxide solution of a test drug was added to a solution composed of 0.2 ml of the squalene epoxidase fraction prepared in (1) [proteins 0.4 mg, 0.5 % Triton X-100, […] Tris-HCl buffer (pH 7.5)], 100 µM FAD, 1 mM NADPH, 1 mM EDTA and 8 µM ³H-squalene-Tween 80 emulsion to adjust the total amount of the solution to 0.3 ml. The solution was incubated at 37 °C for 30 minutes with shaking. Then, 0.3 ml of a 10 % methanolic potassium hydroxide was added to stop the reaction, and the reaction mixture was left to stand at room temperature for 1 hour. The non-saponified material was extracted with petroleum ether, and the solvent was evaporated under a nitrogen stream. […] The position of the resulting ³H-squalene-2,3-epoxide on TLC was determined using ergosterol acetate as a marker, and the ³H-squalene-2,3-epoxide portion on the TLC was cut off. The TLC strip was immersed in a toluene-type scintillator, and measured by a liquid scintillation counter.

T1 sequence (P52020 whole entry): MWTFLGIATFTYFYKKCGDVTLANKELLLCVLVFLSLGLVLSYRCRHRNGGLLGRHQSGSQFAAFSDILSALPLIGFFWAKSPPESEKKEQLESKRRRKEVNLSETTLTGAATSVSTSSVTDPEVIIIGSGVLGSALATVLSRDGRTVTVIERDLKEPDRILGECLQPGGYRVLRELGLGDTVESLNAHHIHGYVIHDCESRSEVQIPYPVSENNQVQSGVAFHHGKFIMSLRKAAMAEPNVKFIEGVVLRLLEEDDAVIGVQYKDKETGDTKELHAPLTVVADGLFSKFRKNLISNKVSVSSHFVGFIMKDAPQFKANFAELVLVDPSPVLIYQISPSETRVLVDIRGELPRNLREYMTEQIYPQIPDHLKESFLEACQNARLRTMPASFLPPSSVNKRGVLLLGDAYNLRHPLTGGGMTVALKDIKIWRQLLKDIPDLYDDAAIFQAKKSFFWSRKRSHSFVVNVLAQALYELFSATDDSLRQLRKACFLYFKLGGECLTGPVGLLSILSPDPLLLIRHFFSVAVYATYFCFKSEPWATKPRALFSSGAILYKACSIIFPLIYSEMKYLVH

| Compound | IC50 |
| --- | --- |
| CN(C/C=C/C#CC(C)(C)C)Cc1cccc(OCc2cccc(-c3nccs3)c2)c1 [Compound 77, (E)-N-(6,6-dimethyl-2-hepten-4-ynyl)-N-methyl-3-[3-(2-thiazolyl)benzyloxy]benzylamine] | 1200 nM |
| CN(C/C=C/C#CC(C)(C)C)Cc1cccc(/C=C/c2ccccn2)c1 [Compound 108, (E)-N-(6,6-dimethyl-2-hepten-4-ynyl)-N-methyl-3-[(E)-2-(2-pyridyl)vinyl]benzylamine] | 450 nM |
| CN(C/C=C/C#CC(C)(C)C)Cc1cccc(OC/C=C/c2ccccc2)c1 [Compound 63, N-[(E)-6,6-dimethyl-2-hepten-4-ynyl]-N-methyl-3-[(E)-3-phenyl-2-propenyloxy]benzylamine hydrochloride] | 5400 nM |
| COc1ccccc1COc1cccc(CN(C)C/C=C/C#CC(C)(C)C)c1 [Compound 51, (E)-N-(6,6-dimethyl-2-hepten-4-ynyl)-N-methyl-3-(2-methoxybenzyloxy)benzylamine hydrochloride] | 1100 nM |
| CN(C/C=C/C#CC(C)(C)C)Cc1cccc(OCc2ccccc2F)c1 [Compound 66, (E)-N-(6,6-dimethyl-2-hepten-4-ynyl)-N-methyl-3-(2-fluorobenzyloxy)benzylamine hydrochloride] | 1200 nM |
| CN(C/C=C/C#CC(C)(C)C)Cc1cccc(OCc2cccc(-n3cccc3)c2)c1 [Compound 81, (E)-N-(6,6-dimethyl-2-hepten-4-ynyl)-N-methyl-3-[3-(1-pyrrolyl)benzyloxy]benzylamine] | 14 nM |
| CCN(C/C=C/C#CC(C)(C)C)Cc1cccc(OCc2cccc(-n3cccc3)c2)c1 [Compound 119, (E)-N-(6,6-dimethyl-2-hepten-4-ynyl)-N-ethyl-3-[3-(1-pyrrolyl)benzyloxy]benzylamine] | 7.1 nM |
| CN(C/C=C/C#CC(C)(C)C)Cc1cccc(C#Cc2ccccc2)c1 [Compound 101, (E)-N-(6,6-dimethyl-2-hepten-4-ynyl)-N-methyl-3-(2-phenylethynyl)benzylamine] | 2100 nM |
| CCCN(C/C=C/C#CC(C)(C)C)Cc1cccc(OCc2cccc(-n3cccc3)c2)c1 [Compound 122, (E)-N-(6,6-dimethyl-2-hepten-4-ynyl)-N-propyl-3-[3-(1-pyrrolyl)benzyloxy]benzylamine] | 13 nM |
| C/C=C(\C)COc1cccc(CN(C)C/C=C/C#CC(C)(C)C)c1 [Compound 90, N-[(E)-6,6-dimethyl-2-hepten-4-ynyl]-N-methyl-3-[(E)-2-methyl-2-butenyloxy]benzylamine hydrochloride] | 5500 nM |
| CN(C/C=C/C#CC(C)(C)C)Cc1cccc(/C=C/c2cccc3ccccc23)c1 [Compound 100, N-[(E)-6,6-dimethyl-2-hepten-4-ynyl]-N-methyl-3-[(E)-2-(1-naphthylvinyl)]benzylamine] | 120 nM |
| CC(C)(C)C#C/C=C/CN(Cc1cccc(OCc2ccccc2)c1)C1CC1 [Compound 43, (E)-N-cyclopropyl-N-(6,6-dimethyl-2-hepten-4-ynyl)-3-benzyloxybenzylamine] | 3900 nM |
| CN(C/C=C/C#CC(C)(C)C)Cc1cccc(OCc2ccc(F)cc2)c1 [Compound 10, (E)-N-(6,6-dimethyl-2-hepten-4-ynyl)-N-methyl-3-(4-fluorobenzyloxy)benzylamine] | 4700 nM |
| CN(C/C=C\C#CC(C)(C)C)Cc1cccc(OCc2cccc3ccccc23)c1 [Compound 19, (Z)-N-(6,6-dimethyl-2-hepten-4-ynyl)-N-methyl-3-(1-naphthylmethyloxy)benzylamine] | 3100 nM |
| Cc1ccccc1/C=C/c1cccc(CN(C)C/C=C/C#CC(C)(C)C)c1 [Compound 99, N-[(E)-6,6-dimethyl-2-hepten-4-ynyl]-N-methyl-3-[(E)-o-methylstyryl]benzylamine] | 2000 nM |
| Cc1ccc(COc2cccc(CN(C)C/C=C/C#CC(C)(C)C)c2)cc1 [Compound 54, (E)-N-(6,6-dimethyl-2-hepten-4-ynyl)-N-methyl-3-(4-methylbenzyloxy)benzylamine] | 1800 nM |
| COc1ccc(COc2cccc(CN(C)C/C=C/C#CC(C)(C)C)c2)cc1 [Compound 12, (E)-N-(6,6-dimethyl-2-hepten-4-ynyl)-N-methyl-3-(4-methoxybenzyloxy)benzylamine] | 6000 nM |

| Compound | IC50 |
| --- | --- |
| CN(C/C=C/C#CC(C)(C)C)Cc1cccc(OCc2cccc(C(F)(F)F)c2)c1 [Compound 57, (E)-N-(6,6-dimethyl-2-hepten-4-ynyl)-N-methyl-3-(3-trifluoromethylbenzyloxy)benzylamine hydrochloride] | 3100 nM |
| Cc1cccc(COc2cccc(CN(C)C/C=C/C#CC(C)(C)C)c2)c1 [Compound 53, (E)-N-(6,6-dimethyl-2-hepten-4-ynyl)-N-methyl-3-(3-methylbenzyloxy)benzylamine] | 660 nM |
| CN(C/C=C/C#CC(C)(C)C)Cc1cccc(OCc2cccc(-c3ccco3)c2)c1 [Compound 75, (E)-N-(6,6-dimethyl-2-hepten-4-ynyl)-N-methyl-3-[3-(2-furyl)benzyloxy]benzylamine hydrochloride] | 140 nM |
| CN(C/C=C/C#CC(C)(C)C)Cc1cccc(NCc2ccccc2)c1 [Compound 102, (E)-N-(6,6-dimethyl-2-hepten-4-ynyl)-N-methyl-3-benzylaminobenzylamine] | 2100 nM |
| CN(C/C=C/C#CC(C)(C)C)Cc1cccc(OCc2cccc(CO)c2)c1 [Compound 96, (E)-N-(6,6-dimethyl-2-hepten-4-ynyl)-N-methyl-3-(3-hydroxymethylbenzyloxy)benzylamine] | 840 nM |
| CN(C/C=C/C#CC(C)(C)C)Cc1cccc(OCc2cccc(-c3ncco3)c2)c1 [Compound 76, (E)-N-(6,6-dimethyl-2-hepten-4-ynyl)-N-methyl-3-[3-(2-oxazolyl)benzyloxy]benzylamine] | 1200 nM |
| CN(C/C=C/C#CC(C)(C)C)Cc1ccc(O)c(OCc2ccccc2)c1 [Compound 50, (E)-N-(6,6-dimethyl-2-hepten-4-ynyl)-N-methyl-3-benzyloxy-4-hydroxybenzylamine hydrochloride] | 2100 nM |
| CN(C/C=C/C#CC(C)(C)C)Cc1csc(/C=C/c2ccccc2)n1 [Compound 117, N-[(E)-6,6-dimethyl-2-hepten-4-ynyl]-N-methyl-2-[(E)-styryl]-4-thiazolylmethylamine] | 520 nM |
| CC(C)(C)C#C/C=C/CNCc1cccc(OCc2ccccc2)c1 [Compound 1, (E)-N-(6,6-dimethyl-2-hepten-4-ynyl)-3-benzyloxybenzylamine] | 6800 nM |
| Cc1cc(CN(C)C/C=C/C#CC(C)(C)C)cc(OCc2ccccc2)c1 [Compound 48, (E)-N-(6,6-dimethyl-2-hepten-4-ynyl)-N-methyl-3-benzyloxy-5-methylbenzylamine hydrochloride] | 5100 nM |
| CN(C/C=C/C#CC(C)(C)C)Cc1cccc(OCc2ccccc2Cl)c1 [Compound 56, (E)-N-(6,6-dimethyl-2-hepten-4-ynyl)-N-methyl-3-(2-chlorobenzyloxy)benzylamine] | 2100 nM |
| CN(C/C=C/c1ccccc1)Cc1cccc2ccccc12 [naftifine, reference compound] | > 100000 nM |
| CN(C/C=C/C#CC(C)(C)C)Cc1cccc(OCCCc2ccccc2)c1 [Compound 58, (E)-N-(6,6-dimethyl-2-hepten-4-ynyl)-N-methyl-3-(3-phenylpropoxy)benzylamine hydrochloride] | 7900 nM |
| Cc1ccccc1COc1ccnc(CN(C)C/C=C/C#CC(C)(C)C)c1 [Compound 112, (E)-N-(6,6-dimethyl-2-hepten-4-ynyl)-N-methyl-4-(2-methylbenzyloxy)-2-pyridylmethylamine] | 690 nM |
| CN(C/C=C/C#CC(C)(C)C)Cc1cccc(OCc2cccc(-c3ccccc3)c2)c1 [Compound 74, (E)-N-(6,6-dimethyl-2-hepten-4-ynyl)-N-methyl-3-(3-phenylbenzyloxy)benzylamine hydrochloride] | 570 nM |
| C=C(C)c1cccc(COc2cccc(CN(C)C/C=C/C#CC(C)(C)C)c2)c1 [Compound 69, (E)-N-(6,6-dimethyl-2-hepten-4-ynyl)-N-methyl-3-(3-isopropenylbenzyloxy)benzylamine] | 510 nM |
| CC(C)=CCc1cccc(COc2cccc(CN(C)C/C=C/C#CC(C)(C)C)c2)c1 [Compound 72, (E)-N-(6,6-dimethyl-2-hepten-4-ynyl)-N-methyl-3-[3-(3-methyl-2-butenyl)benzyloxy]benzylamine] | 9700 nM |
